# In patent US6617357B2, “Compounds and their use as PDE inhibitors” (SmithKline Beecham Corporation, priority 2001, dated 2003):
row,Structure (SMILES),melting point [°C]
1,"Cc1cc(C)c(S(=O)(=O)N(C)C)cc1[N+](=O)[O-] [Example 2, 2,4-Dimethyl-5-nitro(N,N-dimethyl)benzenesulfonamide]",113
2,"COc1cc(C)c(S(=O)(=O)N(C)C)cc1[N+](=O)[O-] [Example 3, 4-Methoxy-2-methyl-5-nitro(N,N-dimethyl)benzenesulfonamide]",130 to 132
